Calls of active or inactive are those of the source.
Tests used:
[1] = target: G-protein coupled receptor 55 (Homo sapiens, UniProt Q9Y2T6); assay: GPR55 antagonists blocking LPI-driven arrestin recruitment, primary screen, imaging, U2OS, beta-arrestin-GFP, LPI agonist (AID 2013); assay type: functional;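 also: antagonist potency measured as reduced agonist-driven arrestin aggregation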
Cryptococcus neoformans = assay: PubChem AID 686997; assay type: functional, organism-based
BJ [2] = assay: cytotoxicity toward BJ-TERT fibroblasts, dose response, cell-based, RAS-independent, luminescence (AID 1933); assay type: functional; conditions: Homo sapiens
[3] = cytotoxicity toward DRD oncogenic fibroblasts, dose response, cell-based, non-viral oncogenic, luminescence (AID 1934); assay type: functional; conditions: Homo sapiens
[4] = target: T1, Replicative DNA helicase DnaB (Mycobacterium tuberculosis, UniProt P9WMR3); assay: DnaB intein splicing inhibitors, dose response, biochemical, cell-free fluorescence (AID 449749); assay type: functional
T1 sequence (P9WMR3 whole entry): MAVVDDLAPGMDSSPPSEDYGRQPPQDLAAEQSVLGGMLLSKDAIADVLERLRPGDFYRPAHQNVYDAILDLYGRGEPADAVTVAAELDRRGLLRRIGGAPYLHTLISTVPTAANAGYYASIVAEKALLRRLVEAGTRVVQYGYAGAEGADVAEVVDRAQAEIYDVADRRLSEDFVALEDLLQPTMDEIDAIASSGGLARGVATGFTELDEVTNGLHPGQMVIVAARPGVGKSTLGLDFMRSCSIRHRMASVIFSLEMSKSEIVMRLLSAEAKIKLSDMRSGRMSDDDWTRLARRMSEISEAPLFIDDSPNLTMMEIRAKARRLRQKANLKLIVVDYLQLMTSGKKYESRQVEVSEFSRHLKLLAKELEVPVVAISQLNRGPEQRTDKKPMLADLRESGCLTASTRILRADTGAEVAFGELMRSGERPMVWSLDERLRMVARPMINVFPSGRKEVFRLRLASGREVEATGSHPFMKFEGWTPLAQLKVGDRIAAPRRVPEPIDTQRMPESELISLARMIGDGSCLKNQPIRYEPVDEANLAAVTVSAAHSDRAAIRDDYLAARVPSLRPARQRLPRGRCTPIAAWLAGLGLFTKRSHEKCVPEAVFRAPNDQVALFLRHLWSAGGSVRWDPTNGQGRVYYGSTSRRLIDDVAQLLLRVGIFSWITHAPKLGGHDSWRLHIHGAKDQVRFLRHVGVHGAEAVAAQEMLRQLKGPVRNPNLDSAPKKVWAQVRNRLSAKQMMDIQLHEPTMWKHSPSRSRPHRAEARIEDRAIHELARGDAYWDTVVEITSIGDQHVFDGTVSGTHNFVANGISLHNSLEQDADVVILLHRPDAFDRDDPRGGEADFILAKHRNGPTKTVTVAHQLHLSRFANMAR

BJ [5] = assay: cells; assay type: functional, cell-based; conditions: Homo sapiens
[6] = target: T2, Microphthalmia-associated transcription factor (Homo sapiens, UniProt O75030); assay: TRPM1 promoter luciferase signal decrease, dose response, MITF inhibitor project, cell-based, SK-MEL-5, cherry-picked, set 3 (AID 493073); assay type: functional
T2 sequence (O75030 whole entry): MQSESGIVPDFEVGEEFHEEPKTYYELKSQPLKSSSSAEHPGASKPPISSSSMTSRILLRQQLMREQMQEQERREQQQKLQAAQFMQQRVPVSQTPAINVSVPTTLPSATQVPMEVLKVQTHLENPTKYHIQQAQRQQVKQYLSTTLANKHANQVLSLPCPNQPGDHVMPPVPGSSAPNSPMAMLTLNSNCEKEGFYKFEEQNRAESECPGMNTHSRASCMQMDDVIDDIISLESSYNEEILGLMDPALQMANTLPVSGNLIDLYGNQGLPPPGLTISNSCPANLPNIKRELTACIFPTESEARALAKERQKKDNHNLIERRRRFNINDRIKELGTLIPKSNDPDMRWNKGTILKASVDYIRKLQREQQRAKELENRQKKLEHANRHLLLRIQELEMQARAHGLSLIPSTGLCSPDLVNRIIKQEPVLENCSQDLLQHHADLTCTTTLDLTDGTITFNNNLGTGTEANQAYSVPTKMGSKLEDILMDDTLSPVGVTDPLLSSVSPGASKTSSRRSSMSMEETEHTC

[7] = target: Glutathione S-transferase omega-1 (Homo sapiens, UniProt P78417); assay: GSTO1 inhibitor potency, recombinant enzyme, late-stage follow-up, biochemical, SE-Rh probe, in-gel fluorescence, powder samples (AID 463081); assay type: functional
[8] = Intein inhibitors as potential Tuberculosis drugs, a cytotoxicity screen. [Related pubchem assays (depositor defined):AID2221, AID2223, AID434968, AID435010, AID449749, AID449750, AID489010]; assay type: functional
Protein RecA = target: T3, Protein RecA (Mycobacterium tuberculosis, UniProt P9WHJ3); assay: Fluorescence Cell-Free Homogeneous Dose Retest to Identify Inhibitors of RecA-Intein Splicing Activity. [Related pubchem assays (depositor defined):AID2097, AID2223, AID489010, AID492950]; assay type: functional
T3 sequence (P9WHJ3 whole entry): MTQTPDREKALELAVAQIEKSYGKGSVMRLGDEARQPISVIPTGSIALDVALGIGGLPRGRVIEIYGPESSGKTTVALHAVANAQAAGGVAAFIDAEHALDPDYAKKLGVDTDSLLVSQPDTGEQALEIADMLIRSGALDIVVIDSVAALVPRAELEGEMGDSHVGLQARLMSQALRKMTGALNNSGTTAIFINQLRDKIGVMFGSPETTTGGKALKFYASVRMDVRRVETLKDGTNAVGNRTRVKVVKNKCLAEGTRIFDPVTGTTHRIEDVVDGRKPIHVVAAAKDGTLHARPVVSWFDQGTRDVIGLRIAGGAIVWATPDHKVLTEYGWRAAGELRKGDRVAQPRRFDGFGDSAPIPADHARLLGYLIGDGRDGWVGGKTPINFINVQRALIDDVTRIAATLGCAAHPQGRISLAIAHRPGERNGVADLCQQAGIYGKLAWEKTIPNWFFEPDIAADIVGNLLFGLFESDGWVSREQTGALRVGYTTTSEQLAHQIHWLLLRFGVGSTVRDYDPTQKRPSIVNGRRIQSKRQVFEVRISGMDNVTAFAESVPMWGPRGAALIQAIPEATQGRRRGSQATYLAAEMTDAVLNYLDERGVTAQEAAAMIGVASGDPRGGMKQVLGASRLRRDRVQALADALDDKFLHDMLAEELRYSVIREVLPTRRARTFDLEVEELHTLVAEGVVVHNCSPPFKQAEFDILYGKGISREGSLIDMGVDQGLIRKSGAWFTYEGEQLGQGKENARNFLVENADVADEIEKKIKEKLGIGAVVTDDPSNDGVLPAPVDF

BJ [9] = assay: cytotoxicity toward BJ-TERT-LT-ST fibroblasts, dose response, cell-based, RAS-independent, luminescence (AID 1935); assay type: functional; conditions: Homo sapiens;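 also: BJ fibroblasts immortalized with TERT plus LT and ST oncogenes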
[10] = target: Nucleotide-binding oligomerization domain-containing protein 2 (Homo sapiens, UniProt Q9HC29); assay: NOD2 signaling inhibitors, cell-based, luminescence, uHTS, HEK293 (AID 1566); assay type: functional
HEK293 [11] = assay: cells; assay type: functional, cell-based; conditions: Homo sapiens
HEK293 [12] = assay: NOD1 signaling inhibitors, primary screen, cell-based, luminescence, uHTS (AID 1578); assay type: functional; conditions: Homo sapiens
HEK293 [13] = assay: NOD2 signaling inhibitors in MDP-stimulated cells, cell-based, uHTS, luminescence (AID 2001); assay type: functional; conditions: Homo sapiens
HEK293 [14] = assay: cells; conditions: Homo sapiens
HEK293 [15] = assay: cells; assay type: functional, cell-based; conditions: Homo sapiens; remark: listed apart in the source
HEK293 [16] = assay: cells; assay type: functional, cell-based; conditions: Homo sapiens; remark: listed apart in the source
[17] = target: T4, Nucleotide-binding oligomerization domain-containing protein 1 (Homo sapiens, UniProt Q9Y239); assay: NOD1 signaling inhibitors, SAR follow-up, revised (AID 2333); assay type: functional
T4 sequence (Q9Y239 whole entry): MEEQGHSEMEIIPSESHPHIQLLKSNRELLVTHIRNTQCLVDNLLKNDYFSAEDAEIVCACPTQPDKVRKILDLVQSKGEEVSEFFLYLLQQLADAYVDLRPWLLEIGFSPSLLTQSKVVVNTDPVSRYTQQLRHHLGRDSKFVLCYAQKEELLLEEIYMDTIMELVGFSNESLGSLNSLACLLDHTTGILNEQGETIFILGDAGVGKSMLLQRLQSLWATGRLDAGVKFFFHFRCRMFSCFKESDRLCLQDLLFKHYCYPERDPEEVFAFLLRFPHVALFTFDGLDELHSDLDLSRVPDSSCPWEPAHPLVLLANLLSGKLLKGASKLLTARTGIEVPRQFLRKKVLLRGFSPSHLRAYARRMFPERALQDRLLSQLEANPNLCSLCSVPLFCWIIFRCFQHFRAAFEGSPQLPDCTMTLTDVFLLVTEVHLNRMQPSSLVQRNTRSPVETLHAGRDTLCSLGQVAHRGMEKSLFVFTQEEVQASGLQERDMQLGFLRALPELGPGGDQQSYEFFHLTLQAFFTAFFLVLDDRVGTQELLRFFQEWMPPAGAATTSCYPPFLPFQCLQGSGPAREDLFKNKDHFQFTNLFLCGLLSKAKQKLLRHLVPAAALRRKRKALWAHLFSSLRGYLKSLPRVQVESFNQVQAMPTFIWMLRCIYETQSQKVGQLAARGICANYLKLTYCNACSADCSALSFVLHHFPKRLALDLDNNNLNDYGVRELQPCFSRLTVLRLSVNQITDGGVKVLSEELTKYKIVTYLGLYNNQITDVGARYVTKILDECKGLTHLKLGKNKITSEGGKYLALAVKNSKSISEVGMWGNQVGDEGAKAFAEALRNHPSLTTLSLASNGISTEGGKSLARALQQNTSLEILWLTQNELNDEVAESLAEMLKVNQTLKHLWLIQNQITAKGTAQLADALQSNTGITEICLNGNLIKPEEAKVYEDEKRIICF

Tumor necrosis factor = Tumor necrosis factor (Homo sapiens, UniProt P01375); assay: TNFa-triggered NF-kB activation inhibitors, SAR follow-up, cell-based, revised (AID 2337); assay type: functional
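For CC50 in this document: cells exposed to compound for 72 hours before luminescence readout.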

Tumor necrosis factor, sequence (P01375 whole entry): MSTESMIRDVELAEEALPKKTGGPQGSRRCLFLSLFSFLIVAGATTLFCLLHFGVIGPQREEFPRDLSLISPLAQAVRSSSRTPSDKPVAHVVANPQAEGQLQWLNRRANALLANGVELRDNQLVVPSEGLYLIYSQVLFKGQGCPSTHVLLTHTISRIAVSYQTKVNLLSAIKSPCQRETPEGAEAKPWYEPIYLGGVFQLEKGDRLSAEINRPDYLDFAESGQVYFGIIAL
Nucleotide-binding oligomerization domain-containing protein 2, sequence (Q9HC29 whole entry, the tested form may be a part): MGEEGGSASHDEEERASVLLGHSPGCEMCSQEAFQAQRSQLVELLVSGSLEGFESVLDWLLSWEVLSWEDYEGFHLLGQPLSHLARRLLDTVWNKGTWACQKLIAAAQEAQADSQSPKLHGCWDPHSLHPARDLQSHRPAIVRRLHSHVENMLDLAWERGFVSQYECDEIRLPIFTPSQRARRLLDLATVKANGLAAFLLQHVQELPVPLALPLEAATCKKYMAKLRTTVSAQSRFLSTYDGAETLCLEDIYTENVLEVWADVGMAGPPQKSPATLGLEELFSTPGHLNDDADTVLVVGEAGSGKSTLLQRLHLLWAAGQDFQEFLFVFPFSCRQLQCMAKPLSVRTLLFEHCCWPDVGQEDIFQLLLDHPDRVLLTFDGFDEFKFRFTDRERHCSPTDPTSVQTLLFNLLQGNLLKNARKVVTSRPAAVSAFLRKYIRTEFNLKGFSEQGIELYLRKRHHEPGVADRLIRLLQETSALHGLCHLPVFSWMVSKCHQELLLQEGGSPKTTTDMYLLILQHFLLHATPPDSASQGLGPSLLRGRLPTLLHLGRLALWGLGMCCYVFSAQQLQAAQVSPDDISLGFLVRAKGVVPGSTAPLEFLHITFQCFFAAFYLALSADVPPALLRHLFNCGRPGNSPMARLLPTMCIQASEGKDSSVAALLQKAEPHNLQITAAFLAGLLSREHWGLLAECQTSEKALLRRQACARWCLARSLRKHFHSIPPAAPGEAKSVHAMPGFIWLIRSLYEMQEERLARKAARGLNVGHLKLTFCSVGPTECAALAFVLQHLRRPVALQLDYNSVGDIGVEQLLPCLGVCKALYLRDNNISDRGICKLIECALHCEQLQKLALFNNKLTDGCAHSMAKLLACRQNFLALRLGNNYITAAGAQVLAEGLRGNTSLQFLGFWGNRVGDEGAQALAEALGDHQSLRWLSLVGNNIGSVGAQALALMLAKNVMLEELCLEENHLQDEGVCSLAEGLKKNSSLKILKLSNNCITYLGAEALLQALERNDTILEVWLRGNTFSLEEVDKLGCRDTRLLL
Glutathione S-transferase omega-1, sequence (P78417 whole entry): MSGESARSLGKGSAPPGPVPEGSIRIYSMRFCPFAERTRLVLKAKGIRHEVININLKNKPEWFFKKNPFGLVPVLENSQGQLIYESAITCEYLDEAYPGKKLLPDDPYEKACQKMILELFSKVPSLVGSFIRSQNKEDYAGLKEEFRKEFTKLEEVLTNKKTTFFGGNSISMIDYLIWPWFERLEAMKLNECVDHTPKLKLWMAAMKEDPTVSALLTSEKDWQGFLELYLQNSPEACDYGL
G-protein coupled receptor 55, sequence (Q9Y2T6 whole entry): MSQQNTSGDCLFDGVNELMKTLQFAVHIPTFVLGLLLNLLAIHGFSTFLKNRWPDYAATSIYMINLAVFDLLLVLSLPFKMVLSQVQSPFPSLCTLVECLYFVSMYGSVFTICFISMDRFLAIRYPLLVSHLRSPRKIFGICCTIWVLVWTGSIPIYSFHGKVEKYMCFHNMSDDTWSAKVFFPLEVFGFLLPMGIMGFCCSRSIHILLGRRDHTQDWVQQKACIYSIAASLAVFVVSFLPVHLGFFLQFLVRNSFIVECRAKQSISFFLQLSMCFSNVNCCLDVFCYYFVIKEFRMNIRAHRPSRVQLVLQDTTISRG

## S=C(Nc1ccc(Cl)cc1Cl)Nc1ccccc1Oc1ccccc1
[1]
  IC50: 4.08 µM (active)
Cryptococcus neoformans
  AC50: 44.9 µM (active)

## O=C(NC1CCCCC1)C(c1cccnc1)N(C(=O)CCl)c1cccc(Cl)c1 (stereo not given)
BJ [2]
  EC50: 0.349 µM (active)
[3]
  EC50: 2.77 µM (active)
[4]
  AC50: 3.23 µM (active)
BJ [5]
  EC50: 5.05 µM (active)
[6]
  AC50: 4.16 µM (active)
[7]
  IC50: 0.038 µM (active)
[8]
  CC50: 0.82 µM (active)
Protein RecA
  EC50: 0.467 µM (active)
BJ [9]
  EC50: 7.06 µM (inconclusive)

## COc1ccc(N2CCN(C(=O)c3ccc(CNS(=O)(=O)c4ccc(C)cc4)cc3)CC2)cc1
[10]
  EC50: > 20 µM (inactive)
HEK293 [11]
  IC50: 10.1 µM (active)
HEK293 [12]
  EC50: 7.09 µM (active)
HEK293 [13]
  IC50: 12.5 µM (inactive)
HEK293 [14]
  IC50: > 20 µM (inactive)
HEK293 [15]
  IC50: 17.5 µM (active)
HEK293 [16]
  IC50: > 20 µM (inactive)
[17]
  IC50: > 20 µM (inactive)
Tumor necrosis factor
  IC50: > 20 µM (inactive)

From ChEMBL document CHEMBL1201862, “PubChem BioAssay data set” (2004)
